Results as given in EP1247803A2, “Indolinone compounds suitable for modulation of protein kinases” (Sugen, Inc., priority 1996, dated 1998).

Legend:
[1] = target: T1, FLK-1 receptor (Mus musculus, UniProt P35918); experiment: FLK-1 ELISA (kinase activity of the FLK-1 receptor in FLK-1/NIH3T3 cells, VEGF stimulated); type: cell-based; design: concentration or dose not given beside the values
T1 construct: expressed in transfected cells; host or cells: NIH3T3 C7#3
Summary of the method: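 An ELISA using affinity-purified rabbit anti-FLK-1 antiserum on anti-rabbit IgG-coated plates measured VEGF-stimulated FLK-1 kinase activity. NIH3T3 C7#3 cells carrying FLK-1 were serum-starved (0.1% FBS) overnight, then exposed to compound (final 1:200 dilution, 0.5% DMSO) for two hours at 37 °C.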

[2] = system: MET; experiment: MET biochemical kinase assay; design: species or system human; concentration or dose not given beside the values
Summary of the method: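 Colorimetric signal from an HRP-linked anti-phosphotyrosine antibody with TMB measures phosphate incorporated into immobilised MET. The receptor is pulled from lysates by a polyclonal antibody against its cytoplasmic domain, then reacts in ATP- and metal-containing buffer with test compound.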

T1 sequence (P35918 20-1345): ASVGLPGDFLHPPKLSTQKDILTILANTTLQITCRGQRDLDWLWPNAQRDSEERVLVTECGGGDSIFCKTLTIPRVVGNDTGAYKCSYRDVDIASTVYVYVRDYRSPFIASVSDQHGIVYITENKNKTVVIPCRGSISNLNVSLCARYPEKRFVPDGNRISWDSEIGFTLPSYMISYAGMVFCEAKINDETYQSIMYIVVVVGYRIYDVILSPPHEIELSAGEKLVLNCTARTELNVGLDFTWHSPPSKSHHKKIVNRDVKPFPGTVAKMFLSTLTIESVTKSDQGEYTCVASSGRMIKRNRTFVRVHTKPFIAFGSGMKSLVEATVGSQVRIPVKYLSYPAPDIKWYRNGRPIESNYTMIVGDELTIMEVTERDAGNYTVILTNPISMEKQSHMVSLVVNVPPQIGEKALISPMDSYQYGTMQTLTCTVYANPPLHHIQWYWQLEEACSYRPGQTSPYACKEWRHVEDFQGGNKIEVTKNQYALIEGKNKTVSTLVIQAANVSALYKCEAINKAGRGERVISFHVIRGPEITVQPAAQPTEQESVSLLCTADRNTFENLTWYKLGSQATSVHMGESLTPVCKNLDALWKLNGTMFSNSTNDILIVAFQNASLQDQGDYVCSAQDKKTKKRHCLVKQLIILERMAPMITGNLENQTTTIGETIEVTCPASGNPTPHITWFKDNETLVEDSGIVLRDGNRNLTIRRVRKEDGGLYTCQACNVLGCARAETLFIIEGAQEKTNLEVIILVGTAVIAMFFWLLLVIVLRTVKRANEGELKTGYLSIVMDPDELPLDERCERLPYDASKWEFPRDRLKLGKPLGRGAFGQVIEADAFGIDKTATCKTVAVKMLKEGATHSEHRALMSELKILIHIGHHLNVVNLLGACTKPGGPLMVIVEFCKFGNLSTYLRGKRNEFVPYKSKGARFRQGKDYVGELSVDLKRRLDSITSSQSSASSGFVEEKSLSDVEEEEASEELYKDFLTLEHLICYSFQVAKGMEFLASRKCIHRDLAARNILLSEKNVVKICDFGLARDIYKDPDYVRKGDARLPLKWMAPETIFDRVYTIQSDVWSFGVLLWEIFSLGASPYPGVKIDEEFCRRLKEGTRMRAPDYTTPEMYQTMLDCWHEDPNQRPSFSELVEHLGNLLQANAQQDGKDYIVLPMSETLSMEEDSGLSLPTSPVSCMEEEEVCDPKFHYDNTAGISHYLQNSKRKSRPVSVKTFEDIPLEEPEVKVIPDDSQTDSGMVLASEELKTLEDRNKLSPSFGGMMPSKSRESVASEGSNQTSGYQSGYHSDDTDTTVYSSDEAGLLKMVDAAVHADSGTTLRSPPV

Row | SMILES | Fik Kinase %Inhibition [1] [%] | Met Kinase % Inhibition [2] [%]
1 | COc1ccc(C=C2C(=O)Nc3ccc(I)cc32)c2ccccc12 [10729/B03] | 11.2 | 57.3
2 | CSc1ccc(C=C2C(=O)Nc3ccc(I)cc32)cc1 [10729/B04] | 0.1 | 43.8
3 | Cc1ccsc1C=C1C(=O)Nc2ccc(I)cc21 [10729/B05] | -5.2 | 51.0
4 | O=C1Nc2ccc(I)cc2C1=Cc1cccc(Oc2ccccc2)c1 [10729/B06] | 2.0 | 61.1
5 | O=C1Nc2ccc(I)cc2C1=Cc1ccccn1 [10729/B07] | -13.4 | 58.2
6 | O=C1Nc2ccc(I)cc2C1=Cc1cccnc1 [10729/B08] | -14.7 | 66.0
7 | O=C1Nc2ccc(I)cc2C1=Cc1ccncc1 [10729/B09] | -16.0 | 47.2
8 | O=C1Nc2ccc(I)cc2C1=Cc1ccc(N2CCCC2)cc1 [10729/B10] | -0.7 | 32.6
9 | O=C1Nc2ccc(I)cc2C1=CC1C=CCCC1 (stereo not shown) [10729/B11] | 7.8 | 36.6
10 | COc1ccc2ccccc2c1C=C1C(=O)Nc2ccc(Br)c(C)c21 [10729/C02] | 6.0 | 18.2
11 | COc1ccc(C=C2C(=O)Nc3ccc(Br)c(C)c32)c2ccccc12 [10729/C03] | 11.0 | 13.5
12 | CSc1ccc(C=C2C(=O)Nc3ccc(Br)c(C)c32)cc1 [10729/C04] | -2.5 | 20.7
13 | Cc1ccsc1C=C1C(=O)Nc2ccc(Br)c(C)c21 [10729/C05] | 5.8 | 15.5
14 | Cc1c(Br)ccc2c1C(=Cc1cccc(Oc3ccccc3)c1)C(=O)N2 [10729/C06] | 3.8 | 15.2
15 | Cc1c(Br)ccc2c1C(=Cc1ccccn1)C(=O)N2 [10729/C07] | -22.4 | 58.4
16 | Cc1c(Br)ccc2c1C(=Cc1cccnc1)C(=O)N2 [10729/C08] | -20.3 | 55.7
17 | Cc1c(Br)ccc2c1C(=Cc1ccncc1)C(=O)N2 [10729/C09] | -26.4 | 60.4
18 | Cc1c(Br)ccc2c1C(=Cc1ccc(N3CCCC3)cc1)C(=O)N2 [10729/C10] | 2.5 | 15.8

Row | SMILES | Fik Kinase %Inhibition [1] [%] | Met Kinase % Inhibition [2] [%]
19 | Cc1c(Br)ccc2c1C(=CC1C=CCCC1)C(=O)N2 (stereo not shown) [10729/C11] | 10.4 | 41.3
20 | CNS(=O)(=O)c1ccc2c(c1)C(=Cc1c(OC)ccc3ccccc13)C(=O)N2 [10729/D02] | 12.2 | 31.7
21 | CNS(=O)(=O)c1ccc2c(c1)C(=Cc1ccc(OC)c3ccccc13)C(=O)N2 [10729/D03] | 15.3 | 22.6
22 | CNS(=O)(=O)c1ccc2c(c1)C(=Cc1ccc(SC)cc1)C(=O)N2 [10729/D04] | -5.7 | 33.1
23 | CNS(=O)(=O)c1ccc2c(c1)C(=Cc1sccc1C)C(=O)N2 [10729/D05] | 2.2 | 28.1
24 | CNS(=O)(=O)c1ccc2c(c1)C(=Cc1cccc(Oc3ccccc3)c1)C(=O)N2 [10729/D06] | 0.2 | 30.2
25 | CNS(=O)(=O)c1ccc2c(c1)C(=Cc1ccccn1)C(=O)N2 [10729/D07] | -15.3 | 25.5
26 | CNS(=O)(=O)c1ccc2c(c1)C(=Cc1cccnc1)C(=O)N2 [10729/D08] | -26.2 | 27.6
27 | CNS(=O)(=O)c1ccc2c(c1)C(=Cc1ccncc1)C(=O)N2 [10729/D09] | -9.6 | 34.8
28 | CNS(=O)(=O)c1ccc2c(c1)C(=Cc1ccc(N3CCCC3)cc1)C(=O)N2 [10729/D10] | 4.1 | 36.1
29 | CNS(=O)(=O)c1ccc2c(c1)C(=CC1C=CCCC1)C(=O)N2 (stereo not shown) [10729/D11] | -2.0 | 18.8
30 | COc1ccc2ccccc2c1C=C1C(=O)Nc2ccc(S(=O)(=O)Nc3ccc(C(F)(F)F)cc3)cc21 [10729/E02] | 26.6 | 11.7
31 | COc1ccc(C=C2C(=O)Nc3ccc(S(=O)(=O)Nc4ccc(C(F)(F)F)cc4)cc32)c2ccccc12 [10729/E03] | 6.9 | 27.5
32 | CSc1ccc(C=C2C(=O)Nc3ccc(S(=O)(=O)Nc4ccc(C(F)(F)F)cc4)cc32)cc1 [10729/E04] | 9.7 | 9.8
33 | Cc1ccsc1C=C1C(=O)Nc2ccc(S(=O)(=O)Nc3ccc(C(F)(F)F)cc3)cc21 [10729/E05] | 46.8 | 13.4
34 | O=C1Nc2ccc(S(=O)(=O)Nc3ccc(C(F)(F)F)cc3)cc2C1=Cc1cccc(Oc2ccccc2)c1 [10729/E06] | 12.1 | -0.7
35 | O=C1Nc2ccc(S(=O)(=O)Nc3ccc(C(F)(F)F)cc3)cc2C1=Cc1ccccn1 [10729/E07] | 4.1 | 21.6
